One assay relates to TCF/β-catenin signaling. Nature of the assay: TCF reporter activity / β-catenin recruitment in Y192-231E-expressing MCF7. Format: cell-based, human. The conditions noted are these: preliminary study, data not shown. How it is done: The Dual-Luciferase TM reporter assay system (Promega) was used for sequential measurement of Firefly and Renilla luciferase activities according to manufacturer's instructions. Quantification of luciferase activities were carried out using a luminometer (Sirius).
The Dual-Luciferase TM reporter assay system (Promega) was used for sequential measurement of Firefly and Renilla luciferase activities according to manufacturer's instructions. Quantification of luciferase activities were carried out using a luminometer (Sirius, Berthold-DS Inc, Germany). Briefly, transfected cells in 24-well plate were rinsed once with ice-cold PBS and lysed in 1× Passive Lysis Buffer (PLB) for 15 min at RT. The crude lysate was first incubated with Luciferase Assay Substrate (LAR II) to measure the firefly luciferase activity, followed by incubation with Stop and Glo Substrate to measure the Renilla luciferase activity.
Next, we examined the relative contributions of ERα and Wnt pathway to WBP2-mediated cellular proliferation. […] Even at higher doses of up to 2000 nM, retardation of proliferation by Tamoxifen of Y192-231E-expressing cells remains unremarkable. FH535 is a recently identified small-molecule inhibitor of TCF/β-catenin signaling (31). […] No synergistic effect could be observed when Tamoxifen and FH535 were administered in combination.

The next assay relates to ERα. Nature of the assay: Immunoblot of ERα expression in drug-treated WBP2-Y192-231E mutant-expressing MCF7. Format: cell-based, human. The settings on record: Y192-231E-expressing MCF7; 2 μM Tam and/or 15 μM FH535; day 2-4 post-treatment. How it is done: For cells co-transfected ERE-luciferase, they were either left alone or stimulated with 50 ng/ml Wnt3a ligand for 16 hrs. TCF/ERα luciferase activities in various conditions were then assayed. **P<0.01, ***P<0.001, Student's t-test (2-tailed). […] Cell numbers were measured.
Their expression levels were quantified in three independent experiments and the averages were presented relative to actin. […] For cells co-transfected ERE luciferase, they were either left alone or stimulated with 50 ng/ml Wnt3a ligand for 16 hrs. TCF(C)/ER[…](D) luciferase activities in various conditions were then assayed and analyzed in relative to untreated vector control. **P<0.01, ***P<0.001, Student's t-test (2-tailed). […] Cell numbers were measured daily and compared in relative to vehicle treated vector-expressing cells on Day 0. […] Cell numbers were measured and compared in relative to vehicle-treated cells. […] Cell numbers were measured on day 2 and day 4 and compared in relative to vehicle-treated control at each day (Top Panel). These treated cells were harvested for IB analysis with antibodies indicated (Bottom Panel).
First, we exposed WBP2 phospho-mimic expressing MCF7 cells to serial concentrations of fulvestrant (0.1 nM, 1 nM, 10 nM, 100 nM and 1 μM) and probed for ERα expression to determine the effective working concentration. […] Next, we compared the growth and proliferation of WBP2 phospho-mimic mutant expressing MCF7 in the presence of 100 nM fulvestrant or 15 μM FH535.
For orientation: In western blotting, separated proteins are transferred to a membrane and probed.

SMILES strings stand for the structures. “Also recorded” adds a separate entry of the source.

`Cc1cc([N+](=O)[O-])ccc1NS(=O)(=O)c1cc(Cl)ccc1Cl` [FH535]: the TCF activity reduced with TCF/β-catenin signaling (24-hr post-treatment with 15 μM FH535 in Y192-231E-expressing MCF7) was 50%. For the same compound, the “recruitment of β-catenin” value with TCF/β-catenin signaling is given as “inhibits”. For the same compound, the ERα expression entry with ERα is “significantly reduced; also recorded: reducing”.

(Values after US9429582B2, “Tyrosine-phosphorylated WBP2, a novel cancer target and biomarker” (National University of Singapore, priority 2010, dated 2016).)
